The values that follow come from patent US10512626B2, “Compositions for use in treating glioblastoma” (PELOTON THERAPEUTICS, INC., priority 2015, dated 2019).

Like-named read-outs stand apart in the source and are kept apart here. Where only a bound is given, the exact number is not on record here.

Experiment [1] deals with VEGF concentration in culture medium of 786-O cells. The experiment is described as follows: VEGF ELISA Assay. The class given is cell-based. Conditions: Homo sapiens, 786-0. The procedure: Each concentration was plated in duplicate. About 20 hours later, medium was removed by suction and each well was supplied with 180 μL of growth medium. About 20 µl freshly-made 10× compound stocks were added to each well. […] The EC50 was calculated by GraphPad Prism using the dose-response-inhibition (four parameter) equation. The cell-seeded plate was then subjected to CellTiter-Glo luminescence cell viability assay (Promega) by adding 50 μL of Celltiter Glo reagent into each well and shaking the plate for 8 minutes at 550 rpm (Thermomixer R, Eppendorf) then the luminescence signal immediately read in a plate reader (3 second delay, 0.5 second/well integration time, Synergy 2 multi Detection Microplate reader).

Experiment [2] relates to 786-O-Hif-Luc cells (luciferase gene driven by multiple HIF responsive elements). The experiment is described as follows: Luciferase Assay (HIF reporter). Particulars: 24 h.
Procedure: A pool of infected cells were then selected against 2 μg/mL of puromycin (P8833, Sigma) for 10 days followed by limited dilution to select single clones.
Each concentration was tested in triplicate. After about 24 hours, luciferase activity was determined using ONE-Glo Luciferase Assay Reagent (E6110, Promega) following the manufacturer's recommended procedure. EC50 were calculated using Dotmatics software.
In experiment [3] the target is T1, HIF-2α HIS TAG-PASB Domain (Homo sapiens, UniProt Q99814).
T1 construct: 100 nM HIF-2α HIS TAG-PASB Domain
T1 sequence (Q99814 240-350 limits assumed): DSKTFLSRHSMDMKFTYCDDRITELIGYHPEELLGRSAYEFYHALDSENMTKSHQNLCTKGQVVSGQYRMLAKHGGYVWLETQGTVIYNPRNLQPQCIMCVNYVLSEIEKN
The experiment is described as follows: HIF-2α Scintillation Proximity Assay (SPA). Conditions: displacement of tritiated probe Compound 183. The class given is binding. As for the experimental part: The total assay volume was about 100 μL in the following configuration: 2 μL compound in 100% DMSO, 88 μL buffer with protein and probe and 10 μL of SPA beads. […] The percent inhibition was determined and IC50 values were calculated using the Dotmatics system based on the following equation: % inhibition=[(high control−sample)/(high control−low control)]×100.

Setting [4] is: read-out: Mean Luciferase EC50 (nM).
[5] abbreviates: read-out: Mean Luciferase EC50 (nM), 786-O-Hif-Luc cells, about 24 hours.

`O=S(=O)(c1ccc(Oc2cc(F)cc(Cl)c2)c2c1[C@H](O)CC2)C(F)F` [Compound 1]: the EC50 in experiment [1] was 250 to 1000 nM.
On to `C[C@H]1C[C@@H](O)c2c(S(=O)(=O)C(F)F)ccc(Oc3cc(F)cc(Cl)c3)c21` [Compound 7a], for which the EC50 in experiment [2] (setting [4]) is 250 to 1000 nM.
`O=S(=O)(c1ccc(Oc2cc(F)cc(Cl)c2)c2c1C(O)CC2)C(F)F` (stereo not shown) [Compound 17]: in experiment [1], the EC50 lay within 50 to 249 nM.
With `O=S(=O)(c1ccc(Oc2cc(F)cc(Cl)c2)c(Cl)c1CO)C(F)F` [Compound 41], the 50% effective concentration (EC50) in experiment [1] and in experiment [2] (setting [4]) was 250 to 1000 nM throughout.
As to `N#Cc1cc(F)cc(Oc2ccc(S(=O)(=O)C(F)(F)F)c3c2CC[C@H]3O)c1` [Compound 57], in experiment [2] (setting [4]), the EC50 lay within 50 to 249 nM.
Take `N#Cc1ccc(Oc2cc(F)cc(F)c2)c2c1[C@H](O)C(F)(F)C2` [Compound 67]: in experiment [1], the EC50 was in the range of 50 to 249 nM.
On the same count and under the same terms, to `N#Cc1cc(F)cc(Oc2ccc(S(=O)(=O)C(F)F)c3c2CCC3O)c1` (stereo not shown) [Compound 78] belongs 250 to 1000 nM.
Consider `O=S(=O)(c1ccc(Oc2cc(F)cc(Cl)c2)c(C(F)F)c1)C(F)(F)F` [Compound 124], for which the EC50 in experiment [1] and in experiment [2] (setting [4]) was 250 to 1000 nM in each case.
Turning to `N#Cc1cc(F)cc(Oc2ccc(S(=O)(=O)C(F)F)c3c2CC[C@H]3O)c1` [Compound 155], the EC50 in experiment [1] and in experiment [2] (setting [4]) was 50 to 249 nM each time.
Take `N#Cc1cccc(Oc2ccc(S(=O)(=O)C(F)F)c3c2CC[C@H]3O)c1` [Compound 156]: the EC50 in experiment [2] (setting [4]) lay in the range of 250 to 1000 nM.
Turning to `CS(=O)(=O)c1ccc(Oc2cc(F)cc(C#N)c2)c2c1[C@H](O)C(F)(F)C2` [Compound 163, (S)-3-((2,2-Difluoro-1-hydroxy-7-(methylsulfonyl)-2,3-dihydro-1H-inden-4-yl)oxy)-5-fluorobenzonitrile], the EC50 in experiment [2] (setting [4]) is less than 50 nM.
For `CS(=O)(=O)c1ccc(Oc2cc(F)cc(C#N)c2)c2c1[C@H](N)C(F)(F)C2` [Compound 165], the EC50 in experiment [2] (setting [4]) was in the range of 50 to 249 nM.
With `N#Cc1cc(Cl)cc(Oc2ccc(S(=O)(=O)CF)c3c2CC(F)(F)[C@H]3O)c1` [Compound 167], in experiment [2] (setting [4]), the EC50 is less than 50 nM.
Consider `CCS(=O)(=O)c1ccc(Oc2cc(F)cc(C#N)c2)c2c1[C@H](O)C(F)(F)C2` [Compound 206], for which the EC50 in experiment [2] (setting [4]) lay in the range of 50 to 249 nM.
On the same count and under the same terms, under `CS(=O)(=O)c1ccc(Oc2cc(F)cc(C#N)c2)c2c1C(O)C(F)(F)C2` (stereo not shown) [Compound 223] stands 50 to 249 nM; under `CS(=O)(=O)c1ccc(Oc2cc(F)cc(C#N)c2)c2c1[C@@H](O)C(F)(F)C2` [Compound 226], greater than 1000 nM.
The same measure, in the same setting: to `[2H]C([2H])([2H])S(=O)(=O)c1ccc(Oc2cc(F)cc(C#N)c2)c2c1[C@]([2H])(O)C(F)(F)C2` [Compound 229] belongs less than 50 nM; to `CS(=O)(=O)c1ccc(Oc2cc(F)cc(C#N)c2)c2c1[C@H](O)[C@H](F)C2` [Compound 231], less than 50 nM; to `CS(=O)(=O)c1ccc(Oc2cc(F)cc(C#N)c2)c2c1C(O)C(F)C2` (stereo not shown) [Compound 232], less than 50 nM.
With `CS(=O)(=O)c1ccc(Oc2cc(Cl)cc(C#N)c2)c2c1[C@H](O)C(F)(F)C2` [Compound 234], the EC50 in experiment [1] is 50 to 249 nM; in experiment [2] (setting [4]), less than 50 nM.
As for `N#Cc1cncc(Oc2ccc(S(=O)(=O)C(F)(F)F)c3c2CC(F)(F)[C@H]3O)c1` [Compound 235], in experiment [2] (setting [4]), the EC50 was less than 50 nM.
With `[2H][C@]1(O)c2c(S(C)(=O)=O)ccc(Oc3cc(F)cc(C#N)c3)c2CC1(F)F` [Compound 247], the EC50 in experiment [2] (setting [4]) is less than 50 nM.
As for `CNS(=O)(=O)c1ccc(Oc2cc(F)cc(F)c2)c2c1[C@H](O)C(F)(F)C2` [Compound 251], the EC50 in experiment [2] (setting [4]) is 50 to 249 nM.
Take `N#Cc1cc(F)cc(Oc2ccc(S(N)(=O)=O)c3c2CC(F)(F)[C@H]3O)c1` [Compound 252]: the EC50 in experiment [2] (setting [4]) is 50 to 249 nM.
Same read-out and setting: to `CNS(=O)(=O)c1ccc(Oc2cc(F)cc(C#N)c2)c2c1[C@H](O)C(F)(F)C2` [Compound 254] belongs 50 to 249 nM; to `NS(=O)(=O)c1ccc(Oc2cc(F)cc(F)c2)c2c1[C@H](O)C(F)(F)C2` [Compound 256], less than 50 nM.
On the same count and under the same terms, to `CS(=O)(=O)c1ccc(Oc2cc(F)cc(C#N)c2)c2c1[C@H](O)[C@@H](F)C2` [Compound 271] belongs 250 to 1000 nM; to `CS(=O)(=O)c1ccc(Oc2cc(F)cc(C#N)c2)c2c1[C@H](O)[C@H](F)[C@@H]2F` [Compound 289, 3-[(1S,2S,3R)-2,3-difluoro-1-hydroxy-7-methylsulfonyl-indan-4-yl]oxy-5-fluoro-benzonitrile], less than 50 nM.
With `N#Cc1cc(F)cc(Oc2ccc(S(=O)(=O)C(F)(F)F)c3c2CC(F)(F)[C@H]3N)c1` [Compound 290], the 50% effective concentration (EC50) in experiment [2] (setting [4]) lay in the range of 50 to 249 nM.
With `N#Cc1cc(F)cc(Oc2ccc(S(N)(=O)=O)c3c2[C@@H](F)C(F)(F)[C@H]3O)c1` [Compound 338], the EC50 in experiment [2] (setting [4]) is less than 50 nM.
Still for that read-out and setting: to `N#Cc1cc(F)cc(Oc2ccc(S(N)(=O)=O)c3c2[C@H](F)C(F)(F)[C@H]3O)c1` [Compound 339] belongs 250 to 1000 nM.
`CS(=O)(=O)c1ccc(Nc2cc(F)cc(C#N)c2)c2c1[C@H](O)C(F)(F)C2` [Compound 502]: the IC50 in experiment [3] is greater than 1000 nM.
Turning to `O=S(=O)(c1ccc(O[C@H]2C[C@H](O)C2)c2c1[C@H](O)C(F)(F)C2)C(F)(F)F` [Compound 644], in experiment [3], the IC50 is 250 to 1000 nM. Moreover, in experiment [2] (setting [5]), the EC50 lay within 250 to 1000 nM.
For `FC(F)COc1ccc(C(F)(F)F)c2c1C[C@H](F)[C@H]2F` [Compound 697], the IC50 in experiment [3] lay within 50 to 249 nM. Also, the EC50 in experiment [2] (setting [5]) is 50 to 249 nM.
Take `CS(=O)(=O)c1ccc(OC2CC(C#N)C2)c2c1[C@H](O)C(F)(F)[C@@H]2F` (stereo partly shown) [Compound 760]: the EC50 in experiment [1] and in experiment [2] (setting [5]) was 50 to 249 nM in each case.
Take `CS(=O)(=O)c1ccc(O[C@H]2C[C@H](C#N)C2)c2c1[C@H](O)C(F)(F)[C@@H]2F` [Compound 760]: the IC50 in experiment [3] is less than 50 nM.
